The text below walks through data of US20230414758A1, “CAPSAICIN-DERIVED PHOTOSENSITIZER, AND PREPARATION METHOD AND USE THEREOF” (priority 2022, published 2023).

The target of data set [1] is T1, TRPV1 protein (Mus musculus, UniProt Q704Y3).
T1 construct: endogenous in cells; host or cells: 4T1 cells
Kind of data set: Calcium regulation ability at the cellular level, Fluo-8 AM staining, confocal microscopy. Type of data set: cell-based. As to conditions: 4T1 cells. How it is done: The specific operations were as follows.
A high-glucose DMEM cell culture medium containing 10% fetal bovine serum and 5% double antibodies (the following media all contained 10% fetal bovine serum and 5% double antibodies) was prepared. Triple negative breast cancer 4T1 cells in logarithmic growth phase were seeded in a Confocal cell culture dish at a density of 1.0×10^4 cells/well, and incubated in a cell incubator (37° C., 5% CO2) for 12 hrs. […] The cells were incubated in an incubator for another 12 hrs, and the culture medium was changed after incubation. The irradiation group was irradiated with LED light (660 nm, 20 mW cm^−2) for 15 min (without treatment in the non-irradiation group). After irradiation, the culture medium was discarded. The cells were rinsed three times with PBS, and the rinsed cells were stained (10 min) with a fluorescent dye Fluo-8 AM (50.0 μmol L^−1, 1.0 mL) for intracellular calcium. After staining, the cells were rinsed with PBS, and observed by laser confocal microscopy.

For data set [2] the following is noted: reference value used for calculation; cited from earlier work.

T1 sequence (Q704Y3 whole entry): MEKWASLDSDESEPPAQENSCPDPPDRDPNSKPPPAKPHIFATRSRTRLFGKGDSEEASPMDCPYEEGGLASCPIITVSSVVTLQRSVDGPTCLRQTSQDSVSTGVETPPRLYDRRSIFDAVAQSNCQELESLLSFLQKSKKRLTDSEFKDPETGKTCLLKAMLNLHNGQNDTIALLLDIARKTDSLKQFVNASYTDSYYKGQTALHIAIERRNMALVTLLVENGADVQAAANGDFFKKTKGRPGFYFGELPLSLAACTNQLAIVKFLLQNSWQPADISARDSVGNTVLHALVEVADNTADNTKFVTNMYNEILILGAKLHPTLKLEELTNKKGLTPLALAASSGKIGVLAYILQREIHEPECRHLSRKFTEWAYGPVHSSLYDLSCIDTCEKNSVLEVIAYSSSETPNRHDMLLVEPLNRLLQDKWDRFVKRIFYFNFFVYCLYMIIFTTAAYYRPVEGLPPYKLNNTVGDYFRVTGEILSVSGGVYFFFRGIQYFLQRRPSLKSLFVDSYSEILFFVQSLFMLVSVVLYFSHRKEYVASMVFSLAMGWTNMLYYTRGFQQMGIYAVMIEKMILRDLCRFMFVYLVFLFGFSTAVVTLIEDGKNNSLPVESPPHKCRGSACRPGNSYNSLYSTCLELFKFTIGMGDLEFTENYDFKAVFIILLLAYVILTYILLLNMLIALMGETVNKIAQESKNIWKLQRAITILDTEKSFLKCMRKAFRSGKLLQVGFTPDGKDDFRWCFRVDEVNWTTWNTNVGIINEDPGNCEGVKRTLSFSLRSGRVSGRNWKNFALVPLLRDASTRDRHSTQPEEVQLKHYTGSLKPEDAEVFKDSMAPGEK

Regarding `COc1cc(CNC(=O)CCCC/C=C/C(C)C)ccc1O` [CAP, capsaicin], the “change of intracellular calcium fluorescence intensity after irradiation versus before irradiation” value in data set [1] (LED 660 nm, 20 mW cm^−2, 15 min) is “does not change obviously”. Besides, in data set [1] (compared with PBS and BDP groups), the “intracellular calcium fluorescence under non-irradiation and irradiation conditions” value was “intense green fluorescence”.
For `[Zn+2].c1ccc2c(c1)-c1nc-2nc2[n-]c(nc3nc([n-]c4nc(n1)-c1ccccc1-4)-c1ccccc1-3)c1ccccc21` [ZnPc, Zinc phthalocyanine], the “singlet oxygen quantum yield of the reference” value in data set [2] is 1.
